We go through 28 compounds from patent US9815851B2, “Pyrrolo carboxamides as modulators of orphan nuclear receptor RAR-related orphan receptor-gamma (RORγ, NR1F3) activity and for the treatment of chronic inflammatory and autoimmune diseases” (PHENEX PHARMACEUTICALS AG, priority 2011, dated 2017).

Assay [1] has as its target T1, RORγ ligand binding domain (LBD) (Homo sapiens, UniProt P51449).
T1 construct: made in house; host or cells: E. coli BL-21 (BL3), vector pDEST15
T1 sequence (P51449 269-508 limits assumed): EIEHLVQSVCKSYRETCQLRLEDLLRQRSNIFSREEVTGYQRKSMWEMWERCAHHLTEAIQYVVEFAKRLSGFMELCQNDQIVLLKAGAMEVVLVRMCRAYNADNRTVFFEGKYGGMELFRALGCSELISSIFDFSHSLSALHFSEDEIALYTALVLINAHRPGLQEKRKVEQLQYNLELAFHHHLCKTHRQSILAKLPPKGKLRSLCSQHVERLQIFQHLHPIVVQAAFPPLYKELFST
As to the kind of experiment: TR-FRET Activity Assay (ligand sensing, RORγ-LBD / coactivator peptide interaction, LANCE). Format: biochemical. For orientation: In TR-FRET formats the signal depends on donor and acceptor labels being close together.

The next assay deals with T2, RORγ (UniProt P51449).
T2 sequence (P51449 1-518): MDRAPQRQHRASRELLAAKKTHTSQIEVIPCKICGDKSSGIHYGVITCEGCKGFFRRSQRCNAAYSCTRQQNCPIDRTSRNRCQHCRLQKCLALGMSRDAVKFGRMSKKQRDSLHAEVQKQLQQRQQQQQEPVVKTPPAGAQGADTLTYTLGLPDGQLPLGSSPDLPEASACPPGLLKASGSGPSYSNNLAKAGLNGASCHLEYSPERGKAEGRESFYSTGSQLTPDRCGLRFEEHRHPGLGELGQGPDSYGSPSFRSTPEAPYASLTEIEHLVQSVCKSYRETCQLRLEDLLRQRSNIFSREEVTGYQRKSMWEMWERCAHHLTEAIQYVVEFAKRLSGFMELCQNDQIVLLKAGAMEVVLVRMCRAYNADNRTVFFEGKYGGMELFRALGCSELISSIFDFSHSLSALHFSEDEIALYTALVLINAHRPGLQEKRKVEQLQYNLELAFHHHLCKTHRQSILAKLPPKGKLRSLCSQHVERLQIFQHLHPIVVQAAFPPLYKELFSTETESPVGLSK
As to the kind of experiment: RORγ Gal4 Reporter Gene Assay in 293T cells (firefly and renilla luciferase). Format: cell-based, human.

The mark [2] stands for this setting: first value of the cell FRET/FF/REN, TR-FRET activity assay, read-out: pIC50 (FRET) (converted).
The mark [3] stands for this setting: second value of the cell, Gal4 reporter gene assay in 293T cells, firefly luciferase.
Where [4] appears, read: third value of the cell, Gal4 reporter gene assay in 293T cells, renilla normalised luciferase.

Like-named read-outs stand apart in the source and are kept apart here.

With `Cc1c(C(=O)NCC(C)(C)O)cc(-c2ccc(S(=O)(=O)NC(C)(C)C)c(C(C)(C)C)c2)n1CC1CCCCC1` [9/8], the IC50 in assay [1] (setting [2]) was 631 nM. Also, the “pIC50 (FF)” value at RORγ (setting [3]) is listed as 7.0. Moreover, on RORγ (setting [4]), the “pIC50 (REN)” value worked out at 7.1.

`Cc1c(C(=O)NCC2CC2)cc(-c2cc(C(C)(C)C)c3c(c2)C2(CCO3)CC2)n1CC1CCCCC1` [1/102]: in assay [1] (setting [2]), the IC50 was 501 nM. In addition, the “pIC50 (FF)” value against RORγ (setting [3]) is 6.4. The “pIC50 (REN)” value on RORγ (setting [4]) was 6.4.

`Cc1c(C(=O)N[C@H]2C[C@H](C(=O)O)C2)cc(-c2ccc(S(=O)(=O)NC(C)(C)C)c3c2OCCO3)n1CC1CCCCC1` [17/279]: the IC50 in assay [1] (setting [2]) is 3160 nM. Further, on RORγ (setting [3]), the “pIC50 (FF)” value is on record as less than 4.7. The “pIC50 (REN)” value on RORγ (setting [4]) was less than 4.7.

On to `Cc1c(C(=O)NCCC(C)(C)C(=O)O)cc(-c2ccc(S(=O)(=O)N[C@@H](C)C(F)(F)F)c(C(C)(C)C)c2)n1CC1CCCCC1` [17/152], for which the IC50 in assay [1] (setting [2]) was 1000 nM. Moreover, the “pIC50 (FF)” value at RORγ (setting [3]) is on record as 8.2. Besides, at RORγ (setting [4]), the “pIC50 (REN)” value came out at 8.2.

In assay [1], `Cc1c(C(=O)NC2CCOCC2)cc(-c2ccc(S(=O)(=O)N(CC(F)(F)F)C(C)(C)C)c(C(C)(C)C)c2)n1CC1CCCCC1` [17/1] showed an IC50 of 1260 nM. For the same compound, on RORγ, the “pIC50 (FF)” value was 5.9/8.0/7.9 and the “pIC50 (REN)” value was 5.9/8.0/7.9.

As to `Cc1c(C(=O)NCCCCO)cc(-c2cc(C(C)(C)C)cc(C(C)(C)C)c2)n1CC1CCCCC1` [1/66], the IC50 in assay [1] (setting [2]) is 398 nM. For the same compound, on RORγ (setting [3]), the “pIC50 (FF)” value worked out at 6.7. Moreover, the “pIC50 (REN)” value at RORγ (setting [4]) is recorded as 6.8.

`Cc1c(C(=O)NC2COC2)cc(-c2cc(OCC(C)(C)C)nc(C(F)(F)F)c2)n1CC1CCCCC1` [1/16]: in assay [1] (setting [2]), the IC50 is 6310 nM. At RORγ (setting [3]), the “pIC50 (FF)” value is 6.1. The “pIC50 (REN)” value against RORγ (setting [4]) is on record as 5.8.

On to `Cc1c(C(=O)NC2CCOCC2)cc(-c2ccc(S(=O)(=O)NC(C)(C)CCO)c(C(F)(F)F)c2)n1CC1CCCCC1` [17/108], for which the IC50 in assay [1] (setting [2]) is 1000 nM. The “pIC50 (FF)” value at RORγ (setting [3]) is on record as 6.9. The “pIC50 (REN)” value on RORγ (setting [4]) was 7.1.

`COCC1(CNC(=O)c2cc(-c3cc(C(C)(C)C)cc(C4(C)CC4)c3)n(CC3CCCCC3)c2C)COC1` [17/47] showed an IC50 in assay [1] of 200 nM. At RORγ, the “pIC50 (FF)” value was 6.7/7.3/7.4 and the “pIC50 (REN)” value is recorded as 6.7/7.3/7.4.

Turning to `Cc1c(C(=O)NCC(C)(C)O)cc(-c2cc(OC(F)(F)F)cc(C3(C)CC3)c2)n1CC1CCCCC1` [17/348], in assay [1] (setting [2]), the IC50 was 316 nM. For the same compound, the “pIC50 (FF)” value against RORγ (setting [3]) was 6.9. For the same compound, the “pIC50 (REN)” value at RORγ (setting [4]) stood at 7.0.

`Cc1c(C(=O)NC(C)C(C)(C)O)cc(-c2cc(C(C)(C)C)cc(C(C)(C)C)c2)n1CC1CCCCC1` (stereo not drawn) [1/36] had an IC50 in assay [1] of 158 nM. Moreover, at RORγ, the “pIC50 (FF)” value was 6.8/6.5/6.6 and the “pIC50 (REN)” value is 6.8/6.5/6.6.

On to `Cc1c(C(=O)NCCC(C)(C)C(N)=O)cc(-c2ccc(S(=O)(=O)NC(C)(C)C)c(C(F)(F)F)c2)n1CC1CCCCC1` [17/135], for which the IC50 in assay [1] (setting [2]) is 631 nM. For the same compound, the “pIC50 (FF)” value at RORγ (setting [3]) was 6.7. Also, the “pIC50 (REN)” value on RORγ (setting [4]) worked out at 6.7.

`COC(C)(C)CNC(=O)c1cc(-c2cc(C(C)(C)C)c3c(c2)C2(CCO3)CC2)n(CC2CCCCC2)c1C` [1/97] gave an IC50 in assay [1] of 251 nM. On RORγ, the “pIC50 (FF)” value is 6.6/7.1/7.0 and the “pIC50 (REN)” value was 6.6/7.1/7.0.

On to `Cc1c(C(=O)NC2COC2)cc(-c2cc(C(C)C)c3c(c2)C(C)(C)N(C(C)C)S3(=O)=O)n1CC1CCCCC1` [1/22], for which the IC50 in assay [1] (setting [2]) was 1000 nM. Moreover, the “pIC50 (FF)” value against RORγ (setting [3]) stood at 6.9. At RORγ (setting [4]), the “pIC50 (REN)” value worked out at 6.9.

As for `Cc1c(C(=O)N[C@H]2C[C@H](C(=O)O)C2)c(Cl)c(-c2cc(C(C)(C)C)cc(C3(C)CC3)c2)n1CC1CCCCC1` [Example 29, (trans)-3-(5-(3-(tert-Butyl)-5-(1-methylcyclopropyl)phenyl)-4-chloro-1-(cyclohexylmethyl)-2-methyl-1H-pyrrole-3-carboxamido)cyclobutanecarboxylic acid], the IC50 in assay [1] (setting [2]) is 3980 nM. Also, the “pIC50 (FF)” value against RORγ (setting [3]) was determined as 7.2. Moreover, the “pIC50 (REN)” value against RORγ (setting [4]) is 7.2.

For the compound `Cc1c(C(=O)NCCN2CCOCC2)cc(-c2cc(C(C)(C)C)cc(C3(C)CC3)c2)n1CC1CCCCC1` [1/88], in assay [1], the IC50 was 398 nM. In addition, at RORγ, the “pIC50 (FF)” value was 6.4/6.5/6.5 and the “pIC50 (REN)” value is 6.4/6.5/6.5.

Regarding `Cc1c(C(=O)NC2COC2)cc(-c2ccc(C(=O)NCC(C)(C)C)c(C(C)(C)C)c2)n1CC1CCCCC1` [1/32], the IC50 in assay [1] (setting [2]) is 1580 nM. For the same compound, the “pIC50 (FF)” value against RORγ (setting [3]) is 6.4. On RORγ (setting [4]), the “pIC50 (REN)” value was 6.2.

`CC(C)(C)NS(=O)(=O)c1ccc(-c2cc(C(=O)NC3CCOCC3)cn2CC2CCCCC2)cc1C(C)(C)C` [17/116] had an IC50 in assay [1] of 631 nM. Moreover, the “pIC50 (FF)” value against RORγ (setting [3]) is given as 7.3. The “pIC50 (REN)” value against RORγ (setting [4]) is reported as 7.3.

As for `CCC(C)(C)NS(=O)(=O)c1ccc(-c2cc(C(=O)NCC(C)(C)O)c(C)n2CC2CCCCC2)cc1C(C)(C)C` [9/11], in assay [1] (setting [2]), the IC50 was 501 nM. For the same compound, at RORγ (setting [3]), the “pIC50 (FF)” value is listed as 7.7. Also, at RORγ (setting [4]), the “pIC50 (REN)” value is 7.8.

As to `CC(=NO)c1cc(-c2cc(C(=O)NC3CCOCC3)c(C)n2CC2CCCCC2)cc(C(C)(C)C)c1` [18/1], the IC50 in assay [1] (setting [2]) is 794 nM. Besides, the “pIC50 (FF)” value against RORγ (setting [3]) stood at 7.5. For the same compound, at RORγ (setting [4]), the “pIC50 (REN)” value was determined as 7.7.

For the compound `Cc1c(C(=O)NCC2(C(N)=O)CCOCC2)cc(-c2cc(C(C)(C)C)c3c(c2)C2(CCO3)CC2)n1CC1CCCCC1` [17/41], the IC50 in assay [1] (setting [2]) is 398 nM. Also, the “pIC50 (FF)” value on RORγ (setting [3]) was 8.1. Moreover, the “pIC50 (REN)” value against RORγ (setting [4]) was found to be 8.2.

Take `Cc1c(C(=O)NC2COC2)cc(-c2cc(C3(C)CC3)c3c(c2)C2(CCO3)CC2)n1CC1CCCCC1` [1/42]: the IC50 in assay [1] (setting [2]) was 251 nM. Further, the “pIC50 (FF)” value against RORγ (setting [3]) was found to be 7.5. Further, the “pIC50 (REN)” value against RORγ (setting [4]) is reported as 7.6.

On to `Cc1c(C(=O)N[C@H]2C[C@H](C(=O)O)C2)cc(-c2cc(C(=O)NC(C)(C)C)nc(C3(C)CC3)n2)n1CC1CCCCC1` [17/372], for which the IC50 in assay [1] (setting [2]) was 3160 nM. Further, the “pIC50 (FF)” value against RORγ (setting [3]) was found to be 6.3. For the same compound, the “pIC50 (REN)” value on RORγ (setting [4]) was 6.2.

For the compound `Cc1c(C(=O)NC2CCOCC2)cc(-c2ccc(S(=O)(=O)NC(C)(C)C)c(C(C)C)c2)n1CC1CCCCC1` [17/226], the IC50 in assay [1] (setting [2]) is 316 nM. Moreover, the “pIC50 (FF)” value against RORγ (setting [3]) is 8.2. Besides, the “pIC50 (REN)” value against RORγ (setting [4]) was found to be 8.2.

`COC(C)(C)c1cc(-c2cc(C(=O)NC3CCOCC3)c(C)n2CC2CCCCC2)cc2c1OCCC21CC1` [17/325] gave an IC50 in assay [1] of 2510 nM. Moreover, on RORγ, the “pIC50 (FF)” value was 5.6/7.1/7.2 and the “pIC50 (REN)” value is reported as 5.6/7.1/7.2.

`Cc1c(C(=O)NC2CCOCC2)cc(-c2ccc(S(=O)(=O)NC(C)(C)C)c(OC(F)(F)F)c2)n1CC1CCCCC1` [17/166]: the IC50 in assay [1] (setting [2]) is 158 nM. Also, at RORγ (setting [3]), the “pIC50 (FF)” value is given as 7.8. Moreover, at RORγ (setting [4]), the “pIC50 (REN)” value was 8.0.

For `Cc1c(C(=O)NC2CCOCC2)cc(-c2ccc(S(=O)(=O)NCC(F)(F)F)c(C(F)(F)F)c2)n1CC1CCCCC1` [17/140], in assay [1] (setting [2]), the IC50 was 200 nM. Further, the “pIC50 (FF)” value at RORγ (setting [3]) is on record as 8.0. In addition, the “pIC50 (REN)” value on RORγ (setting [4]) amounted to 8.1.

Regarding `CNC(=O)C1(CNC(=O)c2cc(-c3ccc(S(=O)(=O)NC(C)(C)C)c(C(F)(F)F)c3)n(CC3CCCCC3)c2C)CCOCC1` [17/205], the IC50 in assay [1] (setting [2]) is 794 nM. Also, at RORγ (setting [3]), the “pIC50 (FF)” value amounted to 6.9. For the same compound, at RORγ (setting [4]), the “pIC50 (REN)” value is 7.0.
